Results reported in the OligoGym collection.
HELM strings list units from the 5' end as sugar, base in round brackets, then linkage (d deoxyribose, r ribose, m 2'-O-methyl, p phosphodiester). Strings are as the collection lists them, not checked against the first reports. ss, as = sense and antisense strand

Settings: siRNA
Further: test system not given here.

## RNA1{r(U)p.m(U)p.m(A)p.r(A)p.r(A)p.r(G)p.m(G)p.r(G)p.r(C)p.r(G)p.r(A)p.r(G)p.r(A)p.r(A)p.r(G)p.r(A)p.r(C)p.r(C)p.r(G)p.r(T)p.r(T)}|RNA2{r(C)p.r(G)p.r(G)p.r(U)p.r(C)p.r(U)p.r(U)p.r(C)p.r(U)p.r(C)p.r(G)p.r(C)p.r(C)p.r(C)p.r(U)p.r(U)p.m(U)p.r(A)p.r(A)p.r(T)p.r(T)}$$$RNA1{StrandType:ss}|RNA2{StrandType:as}$
  target mRNA knockdown: 85%

## RNA1{r(U)p.m(U)p.m(G)p.r(G)p.r(G)p.r(G)p.m(A)p.m(A)p.r(G)p.r(C)p.r(G)p.r(G)p.r(C)p.r(C)p.r(G)p.r(G)p.r(C)p.r(G)p.r(G)p.r(T)p.r(T)}|RNA2{r(C)p.r(C)p.r(G)p.r(C)p.r(C)p.r(G)p.r(G)p.r(C)p.r(C)p.r(G)p.r(C)p.r(U)p.r(U)p.r(C)p.r(C)p.r(C)p.m(C)p.r(A)p.r(A)p.r(T)p.r(T)}$$$RNA1{StrandType:ss}|RNA2{StrandType:as}$
  target mRNA knockdown: 78%

## RNA1{r(U)p.m(U)p.r(A)p.m(C)p.r(A)p.r(A)p.r(A)p.m(G)p.m(G)p.r(A)p.r(U)p.r(C)p.r(U)p.r(C)p.r(C)p.r(U)p.r(C)p.r(C)p.r(C)p.r(T)p.r(T)}|RNA2{r(G)p.r(G)p.r(G)p.r(A)p.r(G)p.r(G)p.r(A)p.r(G)p.r(A)p.r(U)p.r(C)p.r(C)p.r(U)p.r(U)p.m(U)p.r(G)p.m(U)p.r(A)p.r(A)p.r(T)p.r(T)}$$$RNA1{StrandType:ss}|RNA2{StrandType:as}$
  target mRNA knockdown: 72%

## RNA1{r(U)p.m(U)p.r(A)p.m(C)p.r(A)p.r(A)p.r(A)p.r(G)p.r(G)p.m(A)p.r(U)p.r(C)p.r(U)p.r(C)p.r(C)p.r(U)p.r(C)p.r(C)p.r(C)p.r(T)p.r(T)}|RNA2{r(G)p.r(G)p.r(G)p.r(A)p.r(G)p.r(G)p.r(A)p.r(G)p.m(A)p.r(U)p.r(C)p.r(C)p.r(U)p.r(U)p.m(U)p.r(G)p.m(U)p.r(A)p.r(A)p.r(T)p.r(T)}$$$RNA1{StrandType:ss}|RNA2{StrandType:as}$
  target mRNA knockdown: 78%

## RNA1{r(U)p.m(U)p.r(A)p.r(A)p.r(A)p.r(G)p.r(G)p.r(G)p.r(C)p.r(G)p.r(A)p.r(G)p.r(A)p.r(A)p.r(G)p.r(A)p.r(C)p.r(C)p.r(G)p.r(T)p.r(T)}|RNA2{r(C)p.r(G)p.r(G)p.r(U)p.r(C)p.r(U)p.r(U)p.r(C)p.r(U)p.r(C)p.r(G)p.r(C)p.r(C)p.r(C)p.r(U)p.r(U)p.m(U)p.r(A)p.r(A)p.r(T)p.r(T)}$$$RNA1{StrandType:ss}|RNA2{StrandType:as}$
  target mRNA knockdown: 87%

## RNA1{r(U)p.m(U)p.r(A)p.r(A)p.r(G)p.r(G)p.r(A)p.r(G)p.r(A)p.r(A)p.r(G)p.r(C)p.m(U)p.m(G)p.r(A)p.r(C)p.r(G)p.r(G)p.r(C)p.r(T)p.r(T)}|RNA2{r(G)p.r(C)p.r(C)p.r(G)p.r(U)p.m(C)p.r(A)p.r(G)p.r(C)p.r(U)p.r(U)p.r(C)p.r(U)p.r(C)p.r(C)p.r(U)p.m(U)p.r(A)p.r(A)p.r(T)p.r(T)}$$$RNA1{StrandType:ss}|RNA2{StrandType:as}$
  target mRNA knockdown: 82%

## RNA1{r(U)p.m(U)p.r(A)p.r(A)p.r(G)p.r(G)p.r(A)p.r(G)p.r(A)p.r(A)p.r(G)p.r(C)p.m(U)p.r(G)p.r(A)p.r(C)p.r(G)p.r(G)p.r(C)p.r(T)p.r(T)}|RNA2{r(G)p.r(C)p.r(C)p.r(G)p.r(U)p.m(C)p.r(A)p.r(G)p.r(C)p.r(U)p.r(U)p.r(C)p.r(U)p.r(C)p.r(C)p.r(U)p.m(U)p.r(A)p.r(A)p.r(T)p.r(T)}$$$RNA1{StrandType:ss}|RNA2{StrandType:as}$
  target mRNA knockdown: 67%

## RNA1{r(U)p.m(U)p.r(A)p.r(A)p.r(G)p.r(G)p.r(A)p.r(G)p.r(A)p.r(A)p.r(G)p.r(C)p.r(U)p.r(G)p.r(A)p.r(C)p.r(G)p.r(G)p.r(C)p.r(T)p.r(T)}|RNA2{r(G)p.r(C)p.r(C)p.r(G)p.r(U)p.m(C)p.r(A)p.r(G)p.r(C)p.r(U)p.r(U)p.r(C)p.r(U)p.r(C)p.r(C)p.r(U)p.m(U)p.r(A)p.r(A)p.r(T)p.r(T)}$$$RNA1{StrandType:ss}|RNA2{StrandType:as}$
  target mRNA knockdown: 83%
